Experiment [1] concerns the target BMP-2-inducible protein kinase (Homo sapiens, UniProt Q9NSY1).
Experiment [2] has as its target Bone morphogenetic protein receptor type-1A (Homo sapiens, UniProt P36894).
In experiment [3] the target is Bone morphogenetic protein receptor type-1B (Homo sapiens, UniProt O00238).
Experiment [4] concerns the target Serine/threonine-protein kinase MRCK gamma (Homo sapiens, UniProt Q6DT37).
The target of experiment [5] is Cyclin-dependent kinase 13 (Homo sapiens, UniProt Q14004).
The target in experiment [6] is T1, Serine/threonine-protein kinase Chk1 (Homo sapiens, UniProt O14757).
T1 sequence (O14757 whole entry): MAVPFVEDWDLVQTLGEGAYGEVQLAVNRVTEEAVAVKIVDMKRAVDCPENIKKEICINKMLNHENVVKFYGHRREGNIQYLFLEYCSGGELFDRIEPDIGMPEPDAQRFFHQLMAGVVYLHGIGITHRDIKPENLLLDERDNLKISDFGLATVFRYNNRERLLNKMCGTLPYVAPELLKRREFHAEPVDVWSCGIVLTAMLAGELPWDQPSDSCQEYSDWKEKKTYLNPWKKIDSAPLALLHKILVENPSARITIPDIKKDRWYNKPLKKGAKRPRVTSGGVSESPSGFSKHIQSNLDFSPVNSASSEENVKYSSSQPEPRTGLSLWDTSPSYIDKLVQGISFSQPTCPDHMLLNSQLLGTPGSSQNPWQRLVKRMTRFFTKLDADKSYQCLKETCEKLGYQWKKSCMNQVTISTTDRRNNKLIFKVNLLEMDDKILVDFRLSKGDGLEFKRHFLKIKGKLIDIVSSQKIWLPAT

In experiment [7] the target is Tyrosine-protein kinase CSK (Homo sapiens, UniProt P41240).
Experiment [8] addresses Ephrin type-A receptor 7 (Homo sapiens, UniProt Q15375).
For experiment [9], the target named is T2, Ephrin type-B receptor 2 (Homo sapiens, UniProt P29323).
T2 sequence (P29323 whole entry): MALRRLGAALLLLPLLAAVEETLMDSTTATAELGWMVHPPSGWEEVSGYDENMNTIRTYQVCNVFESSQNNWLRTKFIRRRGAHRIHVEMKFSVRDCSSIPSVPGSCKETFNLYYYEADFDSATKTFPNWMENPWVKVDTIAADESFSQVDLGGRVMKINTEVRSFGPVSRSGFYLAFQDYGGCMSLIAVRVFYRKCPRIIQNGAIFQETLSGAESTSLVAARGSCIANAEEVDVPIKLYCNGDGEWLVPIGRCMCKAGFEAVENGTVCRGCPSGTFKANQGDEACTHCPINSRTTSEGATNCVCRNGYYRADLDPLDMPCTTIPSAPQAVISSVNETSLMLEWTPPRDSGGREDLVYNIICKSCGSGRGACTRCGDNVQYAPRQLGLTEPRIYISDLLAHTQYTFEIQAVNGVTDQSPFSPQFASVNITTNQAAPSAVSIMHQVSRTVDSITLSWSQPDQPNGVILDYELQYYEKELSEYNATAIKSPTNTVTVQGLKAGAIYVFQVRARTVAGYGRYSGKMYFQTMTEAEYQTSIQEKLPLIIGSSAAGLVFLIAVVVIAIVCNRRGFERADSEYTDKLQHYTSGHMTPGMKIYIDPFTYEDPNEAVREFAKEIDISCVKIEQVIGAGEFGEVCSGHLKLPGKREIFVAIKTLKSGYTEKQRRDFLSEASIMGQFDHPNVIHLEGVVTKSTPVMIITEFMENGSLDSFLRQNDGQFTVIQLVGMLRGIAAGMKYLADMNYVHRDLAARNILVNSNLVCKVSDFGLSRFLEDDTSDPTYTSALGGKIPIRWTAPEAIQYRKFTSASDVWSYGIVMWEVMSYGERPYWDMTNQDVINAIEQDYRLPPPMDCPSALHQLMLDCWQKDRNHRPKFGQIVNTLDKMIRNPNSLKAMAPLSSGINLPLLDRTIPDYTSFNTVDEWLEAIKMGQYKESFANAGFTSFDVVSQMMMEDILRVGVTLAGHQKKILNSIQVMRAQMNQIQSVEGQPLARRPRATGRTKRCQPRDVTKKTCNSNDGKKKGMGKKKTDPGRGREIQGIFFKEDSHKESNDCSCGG

Experiment [10] addresses Tyrosine-protein kinase Fyn (Homo sapiens, UniProt P06241).
Experiment [11] has as its target Dual specificity mitogen-activated protein kinase kinase 2 (Homo sapiens, UniProt P36507).
The target in experiment [12] is Mitogen-activated protein kinase 11 (Homo sapiens, UniProt Q15759).
In experiment [13] the target is cAMP-dependent protein kinase catalytic subunit beta (Homo sapiens, UniProt P22694).
Experiment [14] deals with cAMP-dependent protein kinase type II-alpha regulatory subunit (Homo sapiens, UniProt P13861).
The target in experiment [15] is Protein kinase C delta type (Homo sapiens, UniProt Q05655).
For experiment [16], the target named is GTP-binding nuclear protein Ran (Homo sapiens, UniProt P62826).
Experiment [17] addresses Receptor-interacting serine/threonine-protein kinase 2 (Homo sapiens, UniProt O43353).
Experiment [18] has as its target T3, STE20-related kinase adapter protein alpha (Homo sapiens, UniProt Q7RTN6).
T3 sequence (Q7RTN6 whole entry): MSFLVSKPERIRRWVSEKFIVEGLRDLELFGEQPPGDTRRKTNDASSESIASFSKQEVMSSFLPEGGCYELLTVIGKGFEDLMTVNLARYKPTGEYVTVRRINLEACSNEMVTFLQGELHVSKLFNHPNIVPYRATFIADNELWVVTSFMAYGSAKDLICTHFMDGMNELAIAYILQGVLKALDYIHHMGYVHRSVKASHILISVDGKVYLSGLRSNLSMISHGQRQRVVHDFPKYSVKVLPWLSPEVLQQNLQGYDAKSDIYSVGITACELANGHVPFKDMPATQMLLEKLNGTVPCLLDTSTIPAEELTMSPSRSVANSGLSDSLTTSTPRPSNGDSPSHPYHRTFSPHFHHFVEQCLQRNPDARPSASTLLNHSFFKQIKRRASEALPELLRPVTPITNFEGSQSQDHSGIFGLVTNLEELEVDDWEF

The target in experiment [19] is Non-receptor tyrosine-protein kinase TYK2 (Homo sapiens, UniProt P29597).

Data on six compounds can be found in ChEMBL document CHEMBL3991601, “The target landscape of clinical kinase drugs” (Science, 2017).

Activity calls are given as the source filed them. Rule as the data show it, for most assays here: actives have a measured Kd and inactives only a lower limit. Bounds are passed on as bounds.
Also: in the data inactive means no Kd found up to 30 µM.

Chain of Non-receptor tyrosine-protein kinase TYK2 (P29597 whole entry): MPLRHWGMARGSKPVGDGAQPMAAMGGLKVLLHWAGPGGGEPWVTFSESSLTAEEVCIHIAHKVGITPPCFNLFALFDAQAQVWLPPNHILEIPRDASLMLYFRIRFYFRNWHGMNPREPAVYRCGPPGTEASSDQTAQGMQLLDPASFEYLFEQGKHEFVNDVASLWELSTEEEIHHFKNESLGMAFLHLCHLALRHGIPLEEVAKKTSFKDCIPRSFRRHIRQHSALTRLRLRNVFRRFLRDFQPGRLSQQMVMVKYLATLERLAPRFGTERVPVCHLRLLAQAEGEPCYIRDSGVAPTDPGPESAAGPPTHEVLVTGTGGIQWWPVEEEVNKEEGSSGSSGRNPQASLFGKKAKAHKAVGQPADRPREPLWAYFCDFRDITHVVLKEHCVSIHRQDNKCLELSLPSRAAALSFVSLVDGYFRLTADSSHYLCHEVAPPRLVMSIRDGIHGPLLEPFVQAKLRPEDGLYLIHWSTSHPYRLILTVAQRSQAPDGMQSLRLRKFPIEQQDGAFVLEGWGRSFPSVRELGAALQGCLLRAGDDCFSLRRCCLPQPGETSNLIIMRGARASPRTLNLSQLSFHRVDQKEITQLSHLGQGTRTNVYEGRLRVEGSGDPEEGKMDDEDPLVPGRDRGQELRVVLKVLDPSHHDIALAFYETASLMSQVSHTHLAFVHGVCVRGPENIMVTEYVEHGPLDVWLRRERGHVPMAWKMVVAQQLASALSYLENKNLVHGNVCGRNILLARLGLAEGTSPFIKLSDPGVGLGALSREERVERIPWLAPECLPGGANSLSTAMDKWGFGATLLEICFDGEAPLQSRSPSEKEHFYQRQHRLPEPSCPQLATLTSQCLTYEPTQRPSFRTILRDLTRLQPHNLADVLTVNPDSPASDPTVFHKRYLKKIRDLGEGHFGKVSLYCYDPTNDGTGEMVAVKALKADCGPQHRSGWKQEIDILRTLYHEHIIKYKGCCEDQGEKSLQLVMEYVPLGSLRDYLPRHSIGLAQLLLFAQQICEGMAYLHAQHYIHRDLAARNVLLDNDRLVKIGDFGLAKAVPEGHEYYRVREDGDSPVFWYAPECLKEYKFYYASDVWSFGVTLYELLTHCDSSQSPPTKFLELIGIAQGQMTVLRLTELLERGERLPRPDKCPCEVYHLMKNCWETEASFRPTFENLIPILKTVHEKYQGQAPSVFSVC
Chain of Dual specificity mitogen-activated protein kinase kinase 2 (P36507 whole entry): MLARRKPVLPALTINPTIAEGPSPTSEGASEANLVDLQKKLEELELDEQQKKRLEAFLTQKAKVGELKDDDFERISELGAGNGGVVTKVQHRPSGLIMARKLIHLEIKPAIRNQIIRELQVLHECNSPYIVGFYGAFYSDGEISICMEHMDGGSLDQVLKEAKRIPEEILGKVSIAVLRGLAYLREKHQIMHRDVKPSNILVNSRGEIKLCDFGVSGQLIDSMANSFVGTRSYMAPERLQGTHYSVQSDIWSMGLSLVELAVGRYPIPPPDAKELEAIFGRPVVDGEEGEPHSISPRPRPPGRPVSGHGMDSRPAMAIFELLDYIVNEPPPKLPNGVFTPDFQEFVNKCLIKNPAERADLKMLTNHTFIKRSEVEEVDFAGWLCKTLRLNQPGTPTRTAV
Chain of Serine/threonine-protein kinase MRCK gamma (Q6DT37 whole entry): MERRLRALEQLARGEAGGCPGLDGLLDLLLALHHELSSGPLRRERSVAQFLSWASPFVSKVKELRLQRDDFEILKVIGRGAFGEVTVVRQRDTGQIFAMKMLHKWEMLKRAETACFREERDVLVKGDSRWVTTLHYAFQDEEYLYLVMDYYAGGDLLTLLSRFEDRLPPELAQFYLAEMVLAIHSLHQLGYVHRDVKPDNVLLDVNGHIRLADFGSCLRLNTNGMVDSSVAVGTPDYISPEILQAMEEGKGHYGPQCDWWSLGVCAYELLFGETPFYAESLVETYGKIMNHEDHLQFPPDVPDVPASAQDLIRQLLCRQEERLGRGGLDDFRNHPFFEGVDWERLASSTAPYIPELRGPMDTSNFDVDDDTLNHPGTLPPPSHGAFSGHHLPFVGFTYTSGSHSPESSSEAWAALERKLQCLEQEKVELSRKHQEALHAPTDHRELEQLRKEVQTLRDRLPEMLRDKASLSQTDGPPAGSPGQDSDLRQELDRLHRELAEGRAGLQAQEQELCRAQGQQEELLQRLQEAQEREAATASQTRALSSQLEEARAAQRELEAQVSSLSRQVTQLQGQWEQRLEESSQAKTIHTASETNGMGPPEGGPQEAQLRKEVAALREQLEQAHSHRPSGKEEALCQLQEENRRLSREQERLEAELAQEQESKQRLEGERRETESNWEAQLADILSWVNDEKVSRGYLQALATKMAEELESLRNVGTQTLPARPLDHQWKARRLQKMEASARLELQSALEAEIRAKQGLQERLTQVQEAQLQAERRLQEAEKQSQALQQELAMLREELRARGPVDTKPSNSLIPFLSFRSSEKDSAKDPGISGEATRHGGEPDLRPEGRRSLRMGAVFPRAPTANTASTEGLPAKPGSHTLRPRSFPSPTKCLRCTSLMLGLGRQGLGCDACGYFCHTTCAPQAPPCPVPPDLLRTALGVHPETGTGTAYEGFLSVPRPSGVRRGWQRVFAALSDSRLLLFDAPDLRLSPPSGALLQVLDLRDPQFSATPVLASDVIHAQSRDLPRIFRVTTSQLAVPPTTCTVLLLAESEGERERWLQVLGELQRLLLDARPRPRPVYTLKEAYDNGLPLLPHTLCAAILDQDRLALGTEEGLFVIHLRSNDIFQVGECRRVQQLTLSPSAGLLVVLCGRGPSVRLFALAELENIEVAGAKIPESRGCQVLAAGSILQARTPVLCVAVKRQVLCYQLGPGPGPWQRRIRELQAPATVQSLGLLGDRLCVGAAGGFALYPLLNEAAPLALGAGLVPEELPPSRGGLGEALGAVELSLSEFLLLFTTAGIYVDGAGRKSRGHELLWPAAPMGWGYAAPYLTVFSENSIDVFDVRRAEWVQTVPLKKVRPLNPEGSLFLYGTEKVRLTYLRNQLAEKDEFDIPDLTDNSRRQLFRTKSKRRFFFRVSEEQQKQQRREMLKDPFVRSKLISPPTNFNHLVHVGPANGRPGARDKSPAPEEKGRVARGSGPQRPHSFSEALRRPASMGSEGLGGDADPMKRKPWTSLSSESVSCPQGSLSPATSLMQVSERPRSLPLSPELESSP
Chain of Tyrosine-protein kinase CSK (P41240 whole entry): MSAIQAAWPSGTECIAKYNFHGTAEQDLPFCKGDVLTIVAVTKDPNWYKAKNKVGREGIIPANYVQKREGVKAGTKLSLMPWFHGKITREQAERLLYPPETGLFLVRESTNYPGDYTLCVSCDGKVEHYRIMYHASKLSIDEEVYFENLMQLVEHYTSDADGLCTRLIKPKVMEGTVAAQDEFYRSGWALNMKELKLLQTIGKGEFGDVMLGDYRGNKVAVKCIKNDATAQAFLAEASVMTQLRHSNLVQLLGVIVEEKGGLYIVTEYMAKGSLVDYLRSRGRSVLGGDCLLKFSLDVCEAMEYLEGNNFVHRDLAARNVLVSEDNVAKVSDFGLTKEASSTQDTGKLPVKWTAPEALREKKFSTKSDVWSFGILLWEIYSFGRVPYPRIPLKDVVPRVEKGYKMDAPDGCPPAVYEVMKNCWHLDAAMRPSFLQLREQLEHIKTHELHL
Chain of Ephrin type-A receptor 7 (Q15375 whole entry): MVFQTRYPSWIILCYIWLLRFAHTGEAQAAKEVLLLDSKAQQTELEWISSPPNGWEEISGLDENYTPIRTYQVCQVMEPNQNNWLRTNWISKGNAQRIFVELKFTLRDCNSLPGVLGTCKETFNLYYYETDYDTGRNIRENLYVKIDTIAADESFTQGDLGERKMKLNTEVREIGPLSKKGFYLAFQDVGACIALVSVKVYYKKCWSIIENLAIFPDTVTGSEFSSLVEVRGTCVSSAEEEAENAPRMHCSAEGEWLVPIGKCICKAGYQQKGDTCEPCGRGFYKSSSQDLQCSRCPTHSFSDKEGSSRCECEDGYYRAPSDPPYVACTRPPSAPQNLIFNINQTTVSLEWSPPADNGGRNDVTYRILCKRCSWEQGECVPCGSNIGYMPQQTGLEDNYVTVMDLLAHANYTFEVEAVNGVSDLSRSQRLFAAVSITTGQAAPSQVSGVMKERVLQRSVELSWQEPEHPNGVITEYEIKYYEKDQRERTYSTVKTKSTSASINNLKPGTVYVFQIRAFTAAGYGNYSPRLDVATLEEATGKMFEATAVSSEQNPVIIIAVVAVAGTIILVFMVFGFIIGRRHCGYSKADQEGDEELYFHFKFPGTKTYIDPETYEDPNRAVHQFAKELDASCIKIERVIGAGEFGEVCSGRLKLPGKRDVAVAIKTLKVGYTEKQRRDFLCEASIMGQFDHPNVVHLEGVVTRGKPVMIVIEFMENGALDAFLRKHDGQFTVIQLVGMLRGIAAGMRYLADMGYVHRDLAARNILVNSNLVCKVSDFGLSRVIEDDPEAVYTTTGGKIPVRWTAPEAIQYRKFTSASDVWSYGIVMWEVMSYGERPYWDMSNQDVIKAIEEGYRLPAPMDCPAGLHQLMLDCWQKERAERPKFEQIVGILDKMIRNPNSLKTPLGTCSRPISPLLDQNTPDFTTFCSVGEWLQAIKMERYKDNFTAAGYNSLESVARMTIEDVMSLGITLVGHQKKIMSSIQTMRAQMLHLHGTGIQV
Chain of cAMP-dependent protein kinase type II-alpha regulatory subunit (P13861 whole entry): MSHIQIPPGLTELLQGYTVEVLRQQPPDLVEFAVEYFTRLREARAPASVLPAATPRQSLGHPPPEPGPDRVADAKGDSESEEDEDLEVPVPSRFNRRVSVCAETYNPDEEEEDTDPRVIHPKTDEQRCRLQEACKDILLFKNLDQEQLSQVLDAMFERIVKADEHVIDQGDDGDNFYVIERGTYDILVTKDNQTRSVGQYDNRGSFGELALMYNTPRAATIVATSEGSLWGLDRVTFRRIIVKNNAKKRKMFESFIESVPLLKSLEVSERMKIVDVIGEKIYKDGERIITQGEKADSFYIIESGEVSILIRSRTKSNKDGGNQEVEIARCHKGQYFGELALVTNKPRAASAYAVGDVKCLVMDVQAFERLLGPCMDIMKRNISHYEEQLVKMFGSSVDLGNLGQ

Usually Kd stands for the concentration at which binding is half-saturated. Turning to `COc1cc(F)c(F)c(Nc2ccc(I)cc2F)c1NS(=O)(=O)C1(C[C@H](O)CO)CC1` [REFAMETINIB], the Kd is > 30 µM (inactive) in experiment [1]; > 30 µM (inactive) in [2]; > 30 µM (inactive) in experiment [3]; > 30 µM (inactive) in [4]; > 30 µM (inactive) in experiment [5]; 0.439 µM (active) in experiment [6]. The Kd in [7] is > 30 µM (inactive); in [8], > 30 µM (inactive); in [9] it was > 30 µM (inactive); in experiment [10], > 30 µM (inactive); in experiment [11] it was 0.176 µM (active); in experiment [12], > 30 µM (inactive). Also, the Kd in experiment [13], in experiment [14], in [15], in experiment [16], in experiment [17] and in [18] was > 30 µM (inactive) in each case. Further, in experiment [19], the Kd was > 30 µM (inactive).

In the case of `O[C@H]1CC[C@H](Nc2ncc3nc(Nc4c(F)cc(F)cc4F)n([C@H]4CCOC4)c3n2)CC1` [TANZISERTIB], the Kd in experiment [1], in experiment [2], in [3], in [4], in experiment [5] and in experiment [6] was > 30 µM (inactive) throughout. The Kd in experiment [7], in experiment [8], in [9], in [10], in experiment [11] and in experiment [12] was > 30 µM (inactive) in each case. For the same compound, the Kd in experiment [13], in experiment [14], in [15], in [16], in [17] and in [18] was > 30 µM (inactive) in each case. In experiment [19], the Kd is > 30 µM (inactive).

For the compound `FC(F)(F)c1ccc(CNc2ccc(Cc3c[nH]c4ncc(Cl)cc34)cn2)cn1` [PEXIDARTINIB], the Kd in experiment [1], in experiment [2], in experiment [3], in experiment [4], in experiment [5] and in experiment [6] was > 30 µM (inactive) throughout. For the same compound, the Kd in experiment [7], in [8], in [9], in experiment [10], in experiment [11] and in [12] was > 30 µM (inactive) each time. Besides, the Kd in [13], in [14], in experiment [15], in [16], in [17] and in experiment [18] was > 30 µM (inactive) throughout. For the same compound, the Kd in experiment [19] is > 30 µM (inactive).

On to `CNC(=O)c1cc(COc2nnc(Nc3ccc(Cl)cc3)c3ccoc23)ccn1` [TELATINIB], for which the Kd in [1], in experiment [2], in [3], in experiment [4], in [5] and in experiment [6] was > 30 µM (inactive) each time. Moreover, the Kd in experiment [7], in [8], in experiment [9], in experiment [10], in [11] and in experiment [12] was > 30 µM (inactive) throughout. For the same compound, the Kd in [13], in experiment [14], in [15], in [16], in experiment [17] and in [18] was > 30 µM (inactive) each time. Moreover, in experiment [19], the Kd was > 30 µM (inactive).

Regarding `COc1cc2ncnc3c2cc1OCCCCCN(C)Cc1ccc(Br)cc1N3` [JNJ-26483327], the Kd in experiment [1], in experiment [2], in experiment [3], in experiment [4], in [5] and in [6] was > 30 µM (inactive) throughout. Besides, the Kd in [7], in [8], in experiment [9], in experiment [10], in experiment [11] and in experiment [12] was > 30 µM (inactive) throughout. The Kd was > 30 µM (inactive) in [13]; > 30 µM (inactive) in experiment [14]; > 30 µM (inactive) in experiment [15]; > 30 µM (inactive) in experiment [16]; 0.39 µM (active) in [17]; > 30 µM (inactive) in [18]. Further, the Kd in experiment [19] was > 30 µM (inactive).

On to `CNC(=O)c1cccc(-c2ccc3c(N4CCOC[C@@H]4C)nc(N4CCOC[C@@H]4C)nc3n2)c1` [VISTUSERTIB], for which the Kd in [1], in experiment [2], in experiment [3], in experiment [4], in experiment [5] and in [6] was > 30 µM (inactive) each time. Also, the Kd in experiment [7], in [8], in experiment [9], in [10], in [11] and in [12] was > 30 µM (inactive) each time. The Kd in experiment [13], in experiment [14], in experiment [15], in experiment [16], in experiment [17] and in experiment [18] was > 30 µM (inactive) each time. The Kd in experiment [19] is > 30 µM (inactive).
